Test results published in patent publication US12419874B2, “GLP-1R agonist compound and use thereof” (Chongqing Pharmaceutical Research Institute Co., Ltd., priority 2024, dated 2025).

Legend:
GLP-1R [1] = molecular target: T1, GLP-1R (Homo sapiens, UniProt P43220); assay: GLP-1R agonistic activity by cAMP detection kit in HEK293-GLP-1R-luc cells (Example 58); format: cell-based; details: 30 min incubation
Description: (§1) The agonistic activities of the compounds of the present disclosure on GLP-1R were evaluated by detecting the generation of cAMP.
• (1) Cell line: HEK293-GLP-1R-luc Stable Cell Line (Cobioer, CBP71117); • (2) Culture medium: DMEM+10% FBS (Gibco); • (3) Kit: cAMP detection kit (PerkinElmer). 2. Experimental Procedures • (1) HEK293-GLP1R cells were inoculated in a 384-well plate at a density of 2000 cells per well; • (2) 4× working solution of each compound was formulated; • (3) 5 μL of 4× working solution of each compound was added to corresponding well and incubated at 37° C. for 30 min; • (4) 10 μL of Eu-cAMP tracer diluted with Lysis Buffer (1/50) was added to each well; • (5) 10 μL of Ulight-anti-cAMP diluted with Lysis Buffer (1/150) was added to each well; • (6) The plate was incubated at room temperature for 1 h; • (7) The plate was read by a multimode microplate reader (excitation wavelength: 320 nm; emission wavelength: 665 nm and 620 nm). 3. Data Analysis • (1) % Activity was calculated by the following formula: % Activity=100−(Signalcmpd−SignalAve-PC)/(SignalAve-VC−SignalAve-PC)×100 • (2) The dose-response curve was plotted to calculate EC50: Y=Bottom+(Top−Bottom)/(1+10^(Log EC50−X)*HillSlope)) • X: log of agonist concentration; Y: Activity. 4. Experimental Results

GLP-1R [2] = molecular target: T1, GLP-1R; assay: GLP-1R agonistic activity by One-Lite luciferase assay in HEK293-GLP-1R-luc cells (Example 59); format: cell-based; details: 6 h incubation, read-out: cAMP EC50
Description: as §1
• (1) Cell line: HEK293-GLP-1R-luc Stable Cell Line (Cobioer, CBP71117); • (2) Culture medium: DMEM+10% FBS (Gibco); • (3) Kit: One-Lite™ kit Luciferase Assay System (Vazyme). 2. Experimental Procedures • (1) HEK293-GLP1R cells were inoculated in a 96-well plate at a density of 30000 cells per well; • (2) 10× working solution of each compound was formulated; • (3) 10 μL of 10× working solution of each compound was added to corresponding well and incubated at 37° C. for 6 h; • (4) 100 μL of One-Lite Luciferase Assay Substrate formulated using One-Lite Luciferase Assay Buffer was added to each well; • (5) The plate was incubated at room temperature for 3 min; • (6) The plate was read by a multimode microplate reader to detect chemiluminescence. 3. Data Analysis • (1) % Activity was calculated by the following formula: % Activity=100−(Signalcmpd−SignalAve-PC)/(SignalAve-VC−SignalAve-PC)×100 • (2) The dose-response curve was plotted to calculate EC50: Y=Bottom+(Top−Bottom)/(1+10^(Log EC50−X)*HillSlope)) • X: log of agonist concentration; Y: Activity. 4. Experimental Results

[3] = In vivo pharmacokinetics in rats, oral; design: species or system SD rats; details: for AUC(0-t) / Cmax / half-life: rat, plasma, SD rats, PO, 1 mg/kg
Description: The compounds of the present disclosure were formulated with […]+90% 100 mM glycine-64 mM NaOH, and orally administered to fasted SD rats at a dose of 1 mg/kg or 5 mg/kg, respectively. At different time points (0.25, 0.5, 1.0, 2.0, 4.0, 5.0, 6.0, 7.0, 8.0, and 24 h) after administration, about 50 μL of blood samples were collected from veins into anticoagulant tubes containing EDTA-K2, and centrifuged to separate plasma. The plasma concentrations of the compounds were determined by LC-MS/MS. WinNonlin was used to calculate the pharmacokinetic parameters by using the non-compartmental analysis, and the experimental results were listed in Table 9.

[4] = rats, oral, versus example compound 67 in WO2018056453, in words

T1 sequence (P43220 24-463): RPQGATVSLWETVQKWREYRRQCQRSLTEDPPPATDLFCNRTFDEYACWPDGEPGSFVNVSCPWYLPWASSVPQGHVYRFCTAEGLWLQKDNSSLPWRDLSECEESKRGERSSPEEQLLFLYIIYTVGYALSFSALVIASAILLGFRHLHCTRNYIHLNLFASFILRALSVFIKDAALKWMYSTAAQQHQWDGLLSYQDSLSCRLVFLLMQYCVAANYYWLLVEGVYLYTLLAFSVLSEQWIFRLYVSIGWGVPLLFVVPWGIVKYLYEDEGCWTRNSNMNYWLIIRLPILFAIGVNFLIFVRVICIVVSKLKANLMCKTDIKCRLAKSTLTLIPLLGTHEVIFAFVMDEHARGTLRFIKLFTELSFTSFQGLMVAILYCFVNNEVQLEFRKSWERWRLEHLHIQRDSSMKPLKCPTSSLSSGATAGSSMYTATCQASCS

For `Cc1cc(-n2nc3c(c2-n2ccn(-c4ccc5c(cnn5C)c4F)c2=O)[C@H](C)N(C(=O)c2cc4cc([C@H]5CCOC(C)(C)C5)ccc4n2[C@@]2(c4noc(=O)[nH]4)C[C@@H]2C)CC32CCOCC2)cc(C)c1F` [Compound 43], which EC50 (GLP-1R [1]) is on record?
The EC50 was ≤ 0.1 nM.

What about the EC50 (GLP-1R [2]) of the same molecule?
The EC50 was ≤ 20 nM.

Which results are given for `Cc1cc(-n2nc3c(c2-n2ccn(-c4ccc5c(cnn5C)c4F)c2=O)[C@H](C)N(C(=O)c2cc4cc([C@H]5CCOC(C)(C)C5)ccc4n2[C@@]2(c4noc(=O)[nH]4)C[C@@H]2C)CC32CCNCC2)cc(C)c1F` [Compound 57]?
EC50 (GLP-1R [1]): ≤ 0.1 nM; EC50 (GLP-1R [2]): ≤ 20 nM

Which EC50 (GLP-1R [1]) does the source give for `Cc1cc(-n2nc3c(c2-n2ccn(-c4ccc5c(cnn5C)c4F)c2=O)[C@H](C)N(C(=O)c2cc4cc([C@H]5CCOC(C)(C)C5)ccc4n2[C@@]2(c4noc(=O)[nH]4)C[C@@H]2C)CC32CCN(C)CC2)cc(C)c1F` [Compound 59] here?
Its EC50 is ≤ 0.1 nM.

What about the EC50 (GLP-1R [2]) of the same molecule?
The EC50 was ≤ 20 nM.

Which AUC(0-t) [3] does the source give for `Cc1cc(-n2nc3c(c2-n2ccn(-c4ccc5c(cnn5C)c4F)c2=O)[C@H](C)N(C(=O)c2cc4cc([C@H]5CCOC(C)(C)C5)ccc4n2[C@@]2(c4noc(=O)[nH]4)C[C@@H]2C)CC32CC(F)(F)C2)cc(C)c1F` [Compound 180] here?
Its AUC(0-t) is 1120 ng·h/mL.

What about the Cmax [3] of the same molecule?
The Cmax was 129 ng/mL.

And the half-life [3]?
The half-life was 6.4 h.

What about the EC50 (GLP-1R [2]) of the same molecule?
The EC50 was ≤ 20 nM.

With `COC1CCC2(C1)CN(C(=O)c1cc3cc([C@H]4CCOC(C)(C)C4)ccc3n1[C@@]1(c3noc(=O)[nH]3)C[C@@H]1C)[C@@H](C)c1c2nn(-c2cc(C)c(F)c(C)c2)c1-n1ccn(-c2ccc3c(cnn3C)c2F)c1=O` (some centres unmarked) [Compound 210] as the molecule, how does the EC50 (GLP-1R [2]) read?
The EC50 was ≤ 20 nM.

For `Cc1cc(-n2nc3c(c2-n2ccn(-c4ccc5c(cnn5C)c4F)c2=O)[C@H](C)N(C(=O)c2cc4cc([C@H]5CCOC(C)(C)C5)ccc4n2[C@@]2(c4noc(=O)[nH]4)C[C@@H]2C)CC32CCC(F)C2)cc(C)c1F` (some centres unmarked) [Compound 211], which EC50 (GLP-1R [2]) is on record?
The EC50 was ≤ 20 nM.

With `Cc1cc(-n2nc3c(c2-n2ccn(-c4ccc5c(cnn5C)c4F)c2=O)[C@H](C)N(C(=O)c2cc4cc([C@H]5CCOC(C)(C)C5)ccc4n2[C@@]2(c4noc(=O)[nH]4)C[C@@H]2C)CC32CCC(F)(F)C2)cc(C)c1F` (some centres unmarked) [Compound 212] as the molecule, how does the EC50 (GLP-1R [2]) read?
Its EC50 is ≤ 20 nM.

For `Cc1cc(-n2nc3c(c2-n2ccn(-c4ccc5c(cnn5C)c4F)c2=O)[C@H](C)N(C(=O)c2cc4cc([C@H]5CCOC(C)(C)C5)ccc4n2[C@@]2(c4noc(=O)[nH]4)C[C@@H]2C)CC32CC(O)C(O)C2)cc(C)c1F` (some centres unmarked) [Compound 213], which EC50 (GLP-1R [2]) is on record?
Its EC50 is ≤ 20 nM.

For `COC1CC2(CC1OC)CN(C(=O)c1cc3cc([C@H]4CCOC(C)(C)C4)ccc3n1[C@@]1(c3noc(=O)[nH]3)C[C@@H]1C)[C@@H](C)c1c2nn(-c2cc(C)c(F)c(C)c2)c1-n1ccn(-c2ccc3c(cnn3C)c2F)c1=O` (some centres unmarked) [Compound 214], which EC50 (GLP-1R [2]) is on record?
Its EC50 is ≤ 20 nM.

Which results are given for `C=C1CC2(C1)CN(C(=O)c1cc3cc([C@H]4CCOC(C)(C)C4)ccc3n1[C@@]1(c3noc(=O)[nH]3)C[C@@H]1C)[C@@H](C)c1c2nn(-c2cc(C)c(F)c(C)c2)c1-n1ccn(-c2ccc3c(cnn3C)c2F)c1=O` [Compound 218]?
AUC(0-t) [3]: 990 ng·h/mL; Cmax [3]: 110 ng/mL; half-life [3]: 11.6 h; EC50 (GLP-1R [2]): ≤ 20 nM

With `Cc1cc(-n2nc3c(c2-n2ccn(-c4ccc5c(cnn5C)c4F)c2=O)[C@H](C)N(C(=O)c2cc4cc([C@H]5CCOC(C)(C)C5)ccc4n2[C@@]2(c4noc(=O)[nH]4)C[C@@H]2C)CC32CC(C)C2)cc(C)c1F` (some centres unmarked) [Compound 219] as the molecule, how does the EC50 (GLP-1R [2]) read?
The EC50 was ≤ 20 nM.

With `CNC1CC2(C1)CN(C(=O)c1cc3cc([C@H]4CCOC(C)(C)C4)ccc3n1[C@@]1(c3noc(=O)[nH]3)C[C@@H]1C)[C@@H](C)c1c2nn(-c2cc(C)c(F)c(C)c2)c1-n1ccn(-c2ccc3c(cnn3C)c2F)c1=O` (some centres unmarked) [Compound 220] as the molecule, how does the EC50 (GLP-1R [2]) read?
The EC50 was ≤ 20 nM.

With `Cc1cc(-n2nc3c(c2-n2ccn(-c4ccc5c(cnn5C5CC5)c4F)c2=O)[C@H](C)N(C(=O)c2cc4cc([C@H]5CCOC(C)(C)C5)ccc4n2[C@@]2(c4noc(=O)[nH]4)C[C@@H]2C)CC32CC2)cc(C)c1F` [Compound 221] as the molecule, how does the EC50 (GLP-1R [2]) read?
Its EC50 is ≤ 20 nM.

Which EC50 (GLP-1R [2]) does the source give for `CCn1ncc2c(F)c(-n3ccn(-c4c5c(nn4-c4cc(C)c(F)c(C)c4)C4(CC4)CN(C(=O)c4cc6cc([C@H]7CCOC(C)(C)C7)ccc6n4[C@@]4(c6noc(=O)[nH]6)C[C@@H]4C)[C@H]5C)c3=O)ccc21` [Compound 222] here?
The EC50 was ≤ 20 nM.

Which EC50 (GLP-1R [2]) does the source give for `Cc1cc(-n2nc3c(c2-n2ccn(-c4ccc5c(cnn5CC(F)(F)F)c4F)c2=O)[C@H](C)N(C(=O)c2cc4cc([C@H]5CCOC(C)(C)C5)ccc4n2[C@@]2(c4noc(=O)[nH]4)C[C@@H]2C)CC32CC2)cc(C)c1F` [Compound 223] here?
The EC50 was ≤ 20 nM.

For `Cc1cc(-n2nc3c(c2-n2ccn(-c4ccc5nn(CC(F)(F)F)cc5c4F)c2=O)[C@H](C)N(C(=O)c2cc4cc([C@H]5CCOC(C)(C)C5)ccc4n2[C@@]2(c4noc(=O)[nH]4)C[C@@H]2C)CC32CC2)cc(C)c1F` [Compound 224], which EC50 (GLP-1R [2]) is on record?
The EC50 was 20 to 100 nM.

For `Cc1cc(-n2nc3c(c2-n2ccn(-c4ccc5c(cnn5C)c4F)c2=O)[C@H](C)N(C(=O)c2cc4cc([C@H]5CCOC(C)(C)C5)ccc4n2[C@@]2(c4noc(=O)[nH]4)C[C@@H]2C)CC32CC2(F)F)cc(C)c1F` (some centres unmarked) [Compound 225], which EC50 (GLP-1R [2]) is on record?
The EC50 was ≤ 20 nM.

Which results are given for `Cc1cc(-n2nc3c(c2-n2ccn(-c4ccc5c(cnn5C)c4F)c2=O)[C@H](C)N(C(=O)c2cc4cc([C@H]5CCOC(C)(C)C5)ccc4n2[C@@]2(c4noc(=O)[nH]4)C[C@@H]2C)CC32C[C@H]2C)cc(C)c1F` (some centres unmarked) [Compound 226]?
AUC(0-t) [3]: 1480 ng·h/mL; Cmax [3]: 160 ng/mL; half-life [3]: 9.3 h; EC50 (GLP-1R [2]): ≤ 20 nM

With `Cc1cc(-n2nc3c(c2-n2ccn(-c4ccc5c(cnn5C)c4F)c2=O)[C@H](C)N(C(=O)c2cc4cc([C@H]5CCOC(C)(C)C5)ccc4n2[C@@]2(c4noc(=O)[nH]4)C[C@@H]2C)CC32C[C@@H]2C)cc(C)c1F` (some centres unmarked) [Compound 227] as the molecule, how does the EC50 (GLP-1R [2]) read?
The EC50 was 20 to 100 nM.

With `Cc1cc(-n2nc3c(c2-n2ccn(-c4ccc5c(cnn5C)c4F)c2=O)[C@H](C)N(C(=O)c2cc4cc([C@H]5CCOC(C)(C)C5)ccc4n2[C@@]2(c4noc(=O)[nH]4)C[C@@H]2C)CC32CC2F)cc(C)c1F` (some centres unmarked) [Compound 228] as the molecule, how does the AUC(0-t) [3] read?
Its AUC(0-t) is 2400 ng·h/mL.

What about the Cmax [3] of the same molecule?
The Cmax was 216 ng/mL.

What about the half-life [3] of the same molecule?
The half-life was 13 h.

What about the “maximum plasma concentration Cmax compared with the control compound” value [3, 4] of the same molecule?
Its value is “higher”.

And the “oral exposure AUC compared with the control compound” value [3, 4]?
Its value is “higher”.

What about the EC50 (GLP-1R [2]) of the same molecule?
Its EC50 is ≤ 20 nM.

Which EC50 (GLP-1R [2]) does the source give for `CNC1CCC2(C1)CN(C(=O)c1cc3cc([C@H]4CCOC(C)(C)C4)ccc3n1[C@@]1(c3noc(=O)[nH]3)C[C@@H]1C)[C@@H](C)c1c2nn(-c2cc(C)c(F)c(C)c2)c1-n1ccn(-c2ccc3c(cnn3C)c2F)c1=O` (some centres unmarked) [Compound 229] here?
The EC50 was ≤ 20 nM.
